The source of these data is patent US8293731B2, “HIV integrase inhibitors” (Merck Sharp + Dohme Corp., priority 2005, dated 2012).

This experiment has as its system HIV. The experiment in a line: Assay for inhibition of HIV replication (spread assay): acute HIV infection of T-lymphoid cells. Format: cell-based. The note with it: Human immunodeficiency virus 1, 'less than about'. The procedure: Assays for the inhibition of acute HIV infection of T-lymphoid cells were conducted in accordance with Vacca, J. P. et al., Proc. Natl. Acad. Set USA 1994, 91: 4096. […] For example, the compounds of Examples 1 to 64 were tested in this assay and found to have IC95 values of less than about 10 micromolar.
As usually defined, the IC95 is the concentration at which the effect reaches the 95% level. In the case of `CN1CC(C)(C)CCn2c(c3c(c(O)c2=O)C(=O)N(Cc2ccc(F)c(Cl)c2)CC3)C1=O` [Example 45, 11-(3-Chloro-4-fluorobenzyl)-9-hydroxy-2,4,4-trimethyl-3,4,5,6,12,13-hexahydro-2H[1,4]diazocino[2,1-a]-2,6-naphthyridine-1,8,10(11H)trione], the concentration for an effect of 95% (IC95) is less than 10 µM. Then `CC1CCCN(C)C(=O)c2c3c(c(O)c(=O)n21)C(=O)N(Cc1ccc(F)c(Cl)c1)CC3` (centres unmarked) [Example 28, 11-(3-Chloro-4-fluorobenzyl)-9-hydroxy-2,6-dimethyl-3,4,5,6,12,13-hexahydro-2H[1,4]diazocino[2,1-a]2,6-naphthyridine-1,8,10(11H)-trione], with less than 10 µM; and `O=C1c2c(c3n(c(=O)c2O)CCCCN(CCO)C3=O)CCN1Cc1ccc(F)c(Cl)c1` [Example 11, 11-(3-Chloro-4-fluorobenzyl)-9-hydroxy-2-(2-hydroxyethyl)-3,4,5,6,12,13-hexahydro-2H[1,4]diazocino[2,1-a]-2,6-naphthyridine-1,8,10(11H)-trione], with less than 10 µM; and `CN1CC(O)C(C)(C)Cn2c(c3c(c(O)c2=O)C(=O)N(Cc2ccc(F)cc2)CC3)C1=O` (racemic) [Example 42, (4R/S)-11-(4-Fluorobenzyl)-4,9-dihydroxy-2,5,5-trimethyl-3,4,5,6,12,13-hexahydro-2H[1,4]diazocino[2,1-a]-2,6-naphthyridine-1,8,10(11H)-trione], with less than 10 µM. In the case of `CC1CCCN(CCN2CCOCC2)C(=O)c2c3c(c(O)c(=O)n21)C(=O)N(Cc1ccc(F)c(Cl)c1)CC3` (centres unmarked) [Example 32, 11-(3-Chloro-4-fluorobenzyl)-9-hydroxy-2-(2-morpholin-4-ylethyl)-6-methyl-3,4,5,6,12,13-hexahydro-2H[1,4]diazocino[2,1-a]-2,6-naphthyridine-1,8,10(11H)-trione], the 95% effect concentration (IC95) is less than 10 µM.
